Columns and labels:
Type in all cases: in vivo
[1] = test system: giant foxtail (Setaria faberii); assay: Test A preemergence; settings: for Plant response rating, Foxtail, Giant: 125 g ai/ha; for Foxtail, Giant plant response rating (0 to 100 scale, 0 is no effect, 100 is complete control): 500 g ai/ha, visual injury approx. 10 d
How it was run: (§1)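 Each rating is a visual injury score from 0 to 100 given about 10 d after treatment, judged against untreated controls kept alongside in the greenhouse. In loam soil–sand blend, seeds got a preemergence directed soil spray, while postemergence plants were 2 to 10 cm tall at spraying.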

[2] = test system: ryegrass, Italian (Italian ryegrass, Lolium multiflorum); assay: Test A preemergence; settings: for Plant response rating, Ryegrass, Italian: 125 g ai/ha; for Ryegrass, Italian plant response rating (0 to 100 scale, 0 is no effect, 100 is complete control): 500 g ai/ha, visual injury approx. 10 d
How it was run: as §1

Kochia (Kochia scoparia) [3] = assay: Test A preemergence; settings: for Plant response rating, Kochia: 125 g ai/ha; for Kochia plant response rating (0 to 100 scale, 0 is no effect, 100 is complete control): 500 g ai/ha, visual injury approx. 10 d
How it was run: as §1

[4] = test system: barnyardgrass (Echinochloa crus-galli); assay: Test A preemergence; settings: for Plant response rating, Barnyardgrass: 125 g ai/ha; for Barnyardgrass plant response rating (0 to 100 scale, 0 is no effect, 100 is complete control): 500 g ai/ha, visual injury approx. 10 d
How it was run: as §1

[5] = test system: pigweed (Amaranthus retroflexus); assay: Test A preemergence; settings: for Plant response rating, Pigweed: 125 g ai/ha; for Pigweed plant response rating (0 to 100 scale, 0 is no effect, 100 is complete control): 500 g ai/ha, visual injury approx. 10 d
[6] = test system: ragweed (common ragweed, Ambrosia elatior); assay: Test A preemergence; settings: for Plant response rating, Ragweed: 125 g ai/ha; for Ragweed plant response rating (0 to 100 scale, 0 is no effect, 100 is complete control): 500 g ai/ha, visual injury approx. 10 d
How it was run: as §1

[7] = test system: ducksalad (Heteranthera limosa); assay: Test B flooded paddy test; settings: Flood, 0 to 100 scale where 0 is no effect and 100 is complete control, 13 to 15 d
How it was run: (§2)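 Compound goes directly into floodwater once pots are flooded 3 cm above soil, targeting plants at two leaves; the water depth is then held for the test duration. Plants sit 13–15 d in a greenhouse and are rated visually, 100 denoting complete control.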

[8] = test system: sedge, umbrella (small-flower umbrella sedge, Cyperus difformis); assay: Test B flooded paddy test; settings: Flood, 0 to 100 scale where 0 is no effect and 100 is complete control, 13 to 15 d
How it was run: as §2

[9] = test system: barnyardgrass (Echinochloa crus-galli); assay: Test B flooded paddy test; settings: Flood, 0 to 100 scale where 0 is no effect and 100 is complete control, 13 to 15 d
How it was run: as §2

rice (Oryra sativa) = assay: Test B flooded paddy test; settings: Flood, 0 to 100 scale where 0 is no effect and 100 is complete control, 13 to 15 d
How it was run: as §2

[10] = test system: Galium (catchweed bedstraw, Galium aparine); assay: Test A postemergence; settings: for Galium plant response rating: visual injury rating on 0 to 100 scale (0 no effect, 100 complete control), approx. 10 d
How it was run: as §1

[11] = test system: giant foxtail (Setaria faberii); assay: Test A postemergence; settings: for Foxtail, Giant plant response rating: visual injury rating on 0 to 100 scale (0 no effect, 100 complete control), approx. 10 d
How it was run: as §1

[12] = test system: ryegrass, Italian (Italian ryegrass, Lolium multiflorum); assay: Test A postemergence; settings: for Ryegrass, Italian plant response rating: visual injury rating on 0 to 100 scale (0 no effect, 100 complete control), approx. 10 d
How it was run: as §1

Kochia (Kochia scoparia) [13] = assay: Test A postemergence; settings: for Kochia plant response rating: visual injury rating on 0 to 100 scale (0 no effect, 100 complete control), approx. 10 d
How it was run: as §1

[14] = test system: blackgrass (Alopecurus myosuroides); assay: Test A postemergence; settings: for Blackgrass plant response rating: visual injury rating on 0 to 100 scale (0 no effect, 100 complete control), approx. 10 d
How it was run: as §1

[15] = test system: barnyardgrass (Echinochloa crus-galli); assay: Test A postemergence; settings: for Barnyardgrass plant response rating: visual injury rating on 0 to 100 scale (0 no effect, 100 complete control), approx. 10 d
How it was run: as §1

[16] = test system: pigweed (Amaranthus retroflexus); assay: Test A postemergence; settings: for Pigweed plant response rating: visual injury rating on 0 to 100 scale (0 no effect, 100 complete control), approx. 10 d
How it was run: as §1

[17] = test system: ragweed (common ragweed, Ambrosia elatior); assay: Test A postemergence; settings: for Ragweed plant response rating: visual injury rating on 0 to 100 scale (0 no effect, 100 complete control), approx. 10 d
How it was run: as §1

[18] = test system: wheat (Triticum aestivum); assay: Test A postemergence; settings: for Wheat plant response rating: visual injury rating on 0 to 100 scale (0 no effect, 100 complete control), approx. 10 d
How it was run: as §1

corn (Zea mays) = assay: Test A postemergence; settings: for Corn plant response rating: visual injury rating on 0 to 100 scale (0 no effect, 100 complete control), approx. 10 d
How it was run: as §1

[19] = preemergence, 0 to 100 scale (0 no effect, 100 complete control)
[20] = 500 g ai/ha, postemergence, 0 to 100 scale, 0 no effect, 100 complete control
[21] = Preemergence, visual injury after approximately 10 d, 0 to 100 scale where 0 is no effect and 100 is complete control
[22] = 125 g ai/ha, postemergence, visual rating after approx. 10 d, 0 to 100 scale (0 no effect, 100 complete control)
[23] = Postemergence, 500 g ai/ha, 0 to 100 scale where 0 is no effect and 100 is complete control

SMILES: COc1ccc(NC(=O)C2C(=O)NCC2c2ccc(F)c(F)c2)c(F)c1 (stereo not drawn) [Compound 413]
- Plant response rating, Foxtail, Giant [1, 19]: 0
- Foxtail, Giant plant response rating (0 to 100 scale, 0 is no effect, 100 is complete control) ([1]; Preemergence): 0
- Plant response rating, Ryegrass, Italian [2, 19]: 0
- Ryegrass, Italian plant response rating (0 to 100 scale, 0 is no effect, 100 is complete control) ([2]; Preemergence): 0
- Plant response rating, Kochia (Kochia (Kochia scoparia) [3]; [19]): 0
- Kochia plant response rating (0 to 100 scale, 0 is no effect, 100 is complete control) (Kochia (Kochia scoparia) [3]; Preemergence): 0
- Plant response rating, Barnyardgrass [4, 19]: 0
- Barnyardgrass plant response rating (0 to 100 scale, 0 is no effect, 100 is complete control) ([4]; Preemergence): 0
- Plant response rating, Pigweed [5, 19]: 0
- Pigweed plant response rating (0 to 100 scale, 0 is no effect, 100 is complete control) ([5]; Preemergence): 0
- Plant response rating, Ragweed [6, 19]: 0
- Ragweed plant response rating (0 to 100 scale, 0 is no effect, 100 is complete control) ([6]; Preemergence): 0
- Plant response rating, Ducksalad ([7]; 500 g ai/ha): 0
- Plant response rating, Sedge, Umbrella ([8]; 500 g ai/ha): 0
- Plant response rating, Barnyardgrass ([9]; 500 g ai/ha): 0
- Plant response rating, Rice (rice (Oryra sativa); 500 g ai/ha): 0
- Galium plant response rating ([10]; 125 g ai/ha, postemergence): 0
- Plant response rating, Galium [10, 20]: 0
- Foxtail, Giant plant response rating ([11]; 125 g ai/ha, postemergence): 0
- Plant response rating, Foxtail, Giant [11, 20]: 0
- Ryegrass, Italian plant response rating ([12]; 125 g ai/ha, postemergence): 0
- Plant response rating, Ryegrass, Italian [12, 20]: 0
- Kochia plant response rating (Kochia (Kochia scoparia) [13]; 125 g ai/ha, postemergence): 0
- Plant response rating, Kochia (Kochia (Kochia scoparia) [13]; [20]): 0
- Blackgrass plant response rating ([14]; 125 g ai/ha, postemergence): 0
- Plant response rating, Blackgrass [14, 20]: 0
- Barnyardgrass plant response rating ([15]; 125 g ai/ha, postemergence): 0
- Plant response rating, Barnyardgrass [15, 20]: 0
- Pigweed plant response rating ([16]; 125 g ai/ha, postemergence): 0
- Plant response rating, Pigweed [16, 20]: 0
- Ragweed plant response rating ([17]; 125 g ai/ha, postemergence): 0
- Plant response rating, Ragweed [17, 20]: 0
- Wheat plant response rating ([18]; 125 g ai/ha, postemergence): 0
- Plant response rating, Wheat [18, 20]: 0
- Corn plant response rating (corn (Zea mays); 125 g ai/ha, postemergence): 0
- Plant response rating, Corn (corn (Zea mays); [20]): 0

SMILES: O=C1NCC(c2ccc(Br)cc2)C1C(=O)Nc1ccccc1F (stereo not drawn) [Compound 448]
- Plant response rating, Foxtail, Giant [1, 19]: 90
- Foxtail, Giant plant response rating (0 to 100 scale, 0 is no effect, 100 is complete control) ([1]; Preemergence): 90
- Plant response rating, Ryegrass, Italian [2, 19]: 0
- Ryegrass, Italian plant response rating (0 to 100 scale, 0 is no effect, 100 is complete control) ([2]; Preemergence): 20
- Plant response rating, Kochia (Kochia (Kochia scoparia) [3]; [19]): 20
- Kochia plant response rating (0 to 100 scale, 0 is no effect, 100 is complete control) (Kochia (Kochia scoparia) [3]; Preemergence): 50
- Plant response rating, Barnyardgrass [4, 19]: 90
- Barnyardgrass plant response rating (0 to 100 scale, 0 is no effect, 100 is complete control) ([4]; Preemergence): 90
- Plant response rating, Pigweed [5, 19]: 20
- Pigweed plant response rating (0 to 100 scale, 0 is no effect, 100 is complete control) ([5]; Preemergence): 40
- Plant response rating, Ragweed [6, 19]: 0
- Ragweed plant response rating (0 to 100 scale, 0 is no effect, 100 is complete control) ([6]; Preemergence): 20
- Plant response rating, Ducksalad ([7]; 250 g ai/ha): 95
- Plant response rating, Sedge, Umbrella ([8]; 250 g ai/ha): 0
- Plant response rating, Barnyardgrass ([9]; 250 g ai/ha): 40
- Plant response rating, Rice (rice (Oryra sativa); 250 g ai/ha): 0
- Galium plant response rating ([10]; 125 g ai/ha, postemergence): 30
- Plant response rating, Galium [10, 20]: 50
- Foxtail, Giant plant response rating ([11]; 125 g ai/ha, postemergence): 60
- Plant response rating, Foxtail, Giant [11, 20]: 80
- Ryegrass, Italian plant response rating ([12]; 125 g ai/ha, postemergence): 0
- Plant response rating, Ryegrass, Italian [12, 20]: 20
- Kochia plant response rating (Kochia (Kochia scoparia) [13]; 125 g ai/ha, postemergence): 30
- Plant response rating, Kochia (Kochia (Kochia scoparia) [13]; [20]): 50
- Blackgrass plant response rating ([14]; 125 g ai/ha, postemergence): 0
- Plant response rating, Blackgrass [14, 20]: 30
- Barnyardgrass plant response rating ([15]; 125 g ai/ha, postemergence): 80
- Plant response rating, Barnyardgrass [15, 20]: 90
- Pigweed plant response rating ([16]; 125 g ai/ha, postemergence): 20
- Plant response rating, Pigweed [16, 20]: 40
- Ragweed plant response rating ([17]; 125 g ai/ha, postemergence): 0
- Plant response rating, Ragweed [17, 20]: 0
- Wheat plant response rating ([18]; 125 g ai/ha, postemergence): 0
- Plant response rating, Wheat [18, 20]: 0
- Corn plant response rating (corn (Zea mays); 125 g ai/ha, postemergence): 0
- Plant response rating, Corn (corn (Zea mays); [20]): 0

SMILES: O=C1NCC(c2cccc(C(F)(F)F)c2F)C1C(=O)Nc1ccc(F)cc1F (stereo not drawn) [Compound 592]
- Plant response rating, Foxtail, Giant [1, 21]: 90
- Foxtail, Giant plant response rating (0 to 100 scale, 0 is no effect, 100 is complete control) ([1]; Preemergence): 90
- Plant response rating, Ryegrass, Italian [2, 21]: 0
- Ryegrass, Italian plant response rating (0 to 100 scale, 0 is no effect, 100 is complete control) ([2]; Preemergence): 50
- Plant response rating, Kochia (Kochia (Kochia scoparia) [3]; [21]): 0
- Kochia plant response rating (0 to 100 scale, 0 is no effect, 100 is complete control) (Kochia (Kochia scoparia) [3]; Preemergence): 30
- Plant response rating, Barnyardgrass [4, 21]: 90
- Barnyardgrass plant response rating (0 to 100 scale, 0 is no effect, 100 is complete control) ([4]; Preemergence): 90
- Plant response rating, Pigweed [5, 21]: 0
- Pigweed plant response rating (0 to 100 scale, 0 is no effect, 100 is complete control) ([5]; Preemergence): 0
- Plant response rating, Ragweed [6, 21]: 0
- Ragweed plant response rating (0 to 100 scale, 0 is no effect, 100 is complete control) ([6]; Preemergence): 20
- Plant response rating, Ducksalad ([7]; 250 g ai/ha): 80
- Plant response rating, Sedge, Umbrella ([8]; 250 g ai/ha): 0
- Plant response rating, Barnyardgrass ([9]; 250 g ai/ha): 55
- Plant response rating, Rice (rice (Oryra sativa); 250 g ai/ha): 0
- Plant response rating, Galium [10, 22]: 20
- Plant response rating, Galium [10, 23]: 30
- Plant response rating, Foxtail, Giant [11, 22]: 80
- Plant response rating, Foxtail, Giant [11, 23]: 90
- Plant response rating, Ryegrass, Italian [12, 22]: 0
- Plant response rating, Ryegrass, Italian [12, 23]: 0
- Plant response rating, Kochia (Kochia (Kochia scoparia) [13]; [22]): 0
- Plant response rating, Kochia (Kochia (Kochia scoparia) [13]; [23]): 40
- Plant response rating, Blackgrass [14, 22]: 30
- Plant response rating, Blackgrass [14, 23]: 60
- Plant response rating, Barnyardgrass [15, 22]: 80
- Plant response rating, Barnyardgrass [15, 23]: 90
- Plant response rating, Pigweed [16, 22]: 0
- Plant response rating, Pigweed [16, 23]: 0
- Plant response rating, Ragweed [17, 22]: 0
- Plant response rating, Ragweed [17, 23]: 0
- Plant response rating, Wheat [18, 22]: 30
- Plant response rating, Wheat [18, 23]: 70
- Plant response rating, Corn (corn (Zea mays); [22]): 50
- Plant response rating, Corn (corn (Zea mays); [23]): 70

— patent US12077503B2, “Substituted cyclic amides and their use as herbicides” (FMC CORPORATION, priority 2015, dated 2024)
